Columns and labels:
[1] = molecular target: T1, Peptidase, Angiotensin Converting Enzyme (Oryctolagus cuniculus, UniProt P12822); assay: In vitro SafetyScreen panel; format: biochemical, rabbit
T1 construct: Eurofins Discovery (outsourced panel) PP223
Protocol: (§1) In vitro off-target pharmacological activities of HSK21542 were evaluated on 86 targets using a SafetyScreen panel (Item PP223, target selectivity panel) and the corresponding methods could be found at https://www.eurofinsdiscoveryservices.com/.

GABAB1A = molecular target: T2, GABAB1A (Homo sapiens, UniProt Q9UBS5); assay: In vitro SafetyScreen panel; format: binding
T2 construct: Eurofins Discovery (contract panel) Item PP223
Protocol: as §1

[2] = molecular target: T3, Serotonin (5-Hydroxytryptamine) 5-HT2A (Homo sapiens, UniProt P28223); assay: In vitro SafetyScreen panel; format: binding
T3 construct: Eurofins Discovery (outsourced panel) PP223
Protocol: as §1

Vasopressin V1A = molecular target: T4, Vasopressin V1A (Homo sapiens, UniProt P37288); assay: In vitro SafetyScreen panel; format: binding
T4 construct: Eurofins Discovery (contract panel) PP223
Protocol: as §1

Dopamine D2L = molecular target: T5, Dopamine D2L (Homo sapiens, UniProt P14416); assay: In vitro SafetyScreen panel; format: binding
T5 construct: Eurofins Discovery (contract panel) Item PP223
Protocol: as §1

Histamine H2 = molecular target: T6, Histamine H2 (Homo sapiens, UniProt P25021); assay: In vitro SafetyScreen panel; format: binding
T6 construct: Eurofins Discovery (contract panel) Item PP223
Protocol: as §1

Adrenergic α1D = molecular target: T7, Adrenergic α1D (Homo sapiens, UniProt P25100); assay: In vitro SafetyScreen panel; format: binding
T7 construct: Eurofins Discovery (contract panel) PP223
Protocol: as §1

Estrogen ERα = molecular target: T8, Estrogen ERα (Homo sapiens, UniProt P03372); assay: In vitro SafetyScreen panel; format: binding
T8 construct: Eurofins Discovery (contract panel) Item PP223
Protocol: as §1

Endothelin ETA = molecular target: T9, Endothelin ETA (Homo sapiens, UniProt P25101); assay: In vitro SafetyScreen panel; format: binding
T9 construct: Eurofins Discovery (contract panel) Item PP223
Protocol: as §1

Adenosine A2A = molecular target: T10, Adenosine A2A (Homo sapiens, UniProt P29274); assay: In vitro SafetyScreen panel; format: binding
T10 construct: Eurofins Discovery (contract panel) PP223
Protocol: as §1

Dopamine D2S = molecular target: T11, Dopamine D2S (Homo sapiens, UniProt P14416); assay: In vitro SafetyScreen panel; format: binding
T11 construct: Eurofins Discovery (contract panel) Item PP223
Protocol: as §1

[3] = molecular target: T12, Serotonin (5-Hydroxytryptamine) 5-HT2B (Homo sapiens, UniProt P41595); assay: In vitro SafetyScreen panel; format: binding
T12 construct: Eurofins Discovery (contract panel) PP223
Protocol: as §1

Cannabinoid CB1 = molecular target: T13, Cannabinoid CB1 (Homo sapiens, UniProt P21554); assay: In vitro SafetyScreen panel; format: binding
T13 construct: Eurofins Discovery (contract panel) PP223
Protocol: as §1

[4] = molecular target: T14, Leukotriene, Cysteinyl CysLT1 (Homo sapiens, UniProt Q9Y271); assay: In vitro SafetyScreen panel; format: binding
T14 construct: Eurofins Discovery (contract panel) Item PP223
Protocol: as §1

Muscarinic M4 = molecular target: T15, Muscarinic M4 (Homo sapiens, UniProt P08173); assay: In vitro SafetyScreen panel; format: binding
T15 construct: Eurofins Discovery (outsourced panel) PP223
Protocol: as §1

Tachykinin NK1 = molecular target: T16, Tachykinin NK1 (Homo sapiens, UniProt P25103); assay: In vitro SafetyScreen panel; format: binding
T16 construct: Eurofins Discovery (contract panel) PP223
Protocol: as §1

[5] = molecular target: T17, Transporter, Dopamine (DAT) (Homo sapiens, UniProt Q01959); assay: In vitro SafetyScreen panel; format: binding
T17 construct: Eurofins Discovery (contract panel) PP223
Protocol: as §1

Bradykinin B2 = molecular target: T18, Bradykinin B2 (Homo sapiens, UniProt P30411); assay: In vitro SafetyScreen panel; format: binding
T18 construct: Eurofins Discovery (contract panel) PP223
Protocol: as §1

Opiate μ (OP3, MOP) = molecular target: T19, Opiate μ (OP3, MOP) (Homo sapiens, UniProt P35372); assay: In vitro SafetyScreen panel; format: binding
T19 construct: Eurofins Discovery (outsourced panel) PP223
Protocol: as §1

Angiotensin AT1 = molecular target: T20, Angiotensin AT1 (Homo sapiens, UniProt P30556); assay: In vitro SafetyScreen panel; format: binding
T20 construct: Eurofins Discovery (contract panel) PP223
Protocol: as §1

Dopamine D1 = molecular target: T21, Dopamine D1 (Homo sapiens, UniProt P21728); assay: In vitro SafetyScreen panel; format: binding
T21 construct: Eurofins Discovery (contract panel) Item PP223
Protocol: as §1

[6] = molecular target: T22, Cholecystokinin CCK1 (CCKA) (Homo sapiens, UniProt P32238); assay: In vitro SafetyScreen panel; format: binding
T22 construct: Eurofins Discovery (contract panel) PP223
Protocol: as §1

Cannabinoid CB2 = molecular target: T23, Cannabinoid CB2 (Homo sapiens, UniProt P34972); assay: In vitro SafetyScreen panel; format: binding
T23 construct: Eurofins Discovery (contract panel) PP223
Protocol: as §1

Opiate δ1 (OP1, DOP) = molecular target: T24, Opiate δ1 (OP1, DOP) (Homo sapiens, UniProt P41143); assay: In vitro SafetyScreen panel; format: binding
T24 construct: Eurofins Discovery (outsourced panel) PP223
Protocol: as §1

[7] = molecular target: T25, Cholecystokinin CCK2 (CCKB) (Homo sapiens, UniProt P32239); assay: In vitro SafetyScreen panel; format: binding
T25 construct: Eurofins Discovery (contract panel) PP223
Protocol: as §1

Calcium Channel N-Type = molecular target: T26, Calcium Channel N-Type (Rattus norvegicus, UniProt Q02294); assay: In vitro SafetyScreen panel; format: binding
T26 construct: Eurofins Discovery (contract panel) PP223
Protocol: as §1

Chemokine CXCR2 (IL-8RB) = molecular target: T27, Chemokine CXCR2 (IL-8RB) (Homo sapiens, UniProt P25025); assay: In vitro SafetyScreen panel; format: binding
T27 construct: Eurofins Discovery (contract panel) PP223
Protocol: as §1

Muscarinic M1 = molecular target: T28, Muscarinic M1 (Homo sapiens, UniProt P11229); assay: In vitro SafetyScreen panel; format: binding
T28 construct: Eurofins Discovery (outsourced panel) PP223
Protocol: as §1

Histamine H1 = molecular target: T29, Histamine H1 (Homo sapiens, UniProt P35367); assay: In vitro SafetyScreen panel; format: binding
T29 construct: Eurofins Discovery (contract panel) Item PP223
Protocol: as §1

Chemokine CCR1 = molecular target: T30, Chemokine CCR1 (Homo sapiens, UniProt P32246); assay: In vitro SafetyScreen panel; format: binding
T30 construct: Eurofins Discovery (contract panel) PP223
Protocol: as §1

Adrenergic α2A = molecular target: T31, Adrenergic α2A (Homo sapiens, UniProt P08913); assay: In vitro SafetyScreen panel; format: binding
T31 construct: Eurofins Discovery (contract panel) PP223
Protocol: as §1

Progesterone PR-B = molecular target: T32, Progesterone PR-B (Homo sapiens, UniProt P06401); assay: In vitro SafetyScreen panel; format: binding
T32 construct: Eurofins Discovery (outsourced panel) PP223
Protocol: as §1

[8] = molecular target: T33, Glutamate, Metabotropic, mGlu5 (Homo sapiens, UniProt P41594); assay: In vitro SafetyScreen panel; format: binding
T33 construct: Eurofins Discovery (contract panel) Item PP223
Protocol: as §1

[9] = molecular target: T34, Serotonin (5-Hydroxytryptamine) 5-HT2C (Homo sapiens, UniProt P28335); assay: In vitro SafetyScreen panel; format: binding
T34 construct: Eurofins Discovery (contract panel) PP223
Protocol: as §1

Adrenergic α1A = molecular target: T35, Adrenergic α1A (Rattus norvegicus, UniProt P43140); assay: In vitro SafetyScreen panel; format: binding
T35 construct: Eurofins Discovery (contract panel) PP223
Protocol: as §1

Neuropeptide YY1 = molecular target: T36, Neuropeptide YY1 (Homo sapiens, UniProt P25929); assay: In vitro SafetyScreen panel; format: binding
T36 construct: Eurofins Discovery (outsourced panel) PP223
Protocol: as §1

Adrenergic β1 = molecular target: T37, Adrenergic β1 (Homo sapiens, UniProt P08588); assay: In vitro SafetyScreen panel; format: binding
T37 construct: Eurofins Discovery (contract panel) PP223
Protocol: as §1

Melanocortin MC4 = molecular target: T38, Melanocortin MC4 (Homo sapiens, UniProt P32245); assay: In vitro SafetyScreen panel; format: binding
T38 construct: Eurofins Discovery (contract panel) Item PP223
Protocol: as §1

[10] = molecular target: T39, Transporter, Norepinephrine (NET) (Homo sapiens, UniProt P23975); assay: In vitro SafetyScreen panel; format: binding
T39 construct: Eurofins Discovery (contract panel) PP223
Protocol: as §1

human κ opioid receptor = molecular target: T40, human κ opioid receptor (Homo sapiens, UniProt P41145); assay: [3H]diprenorphine binding assay
T40 construct: expressed in transfected cells; cell membranes
T40 sequence (P41145 whole entry): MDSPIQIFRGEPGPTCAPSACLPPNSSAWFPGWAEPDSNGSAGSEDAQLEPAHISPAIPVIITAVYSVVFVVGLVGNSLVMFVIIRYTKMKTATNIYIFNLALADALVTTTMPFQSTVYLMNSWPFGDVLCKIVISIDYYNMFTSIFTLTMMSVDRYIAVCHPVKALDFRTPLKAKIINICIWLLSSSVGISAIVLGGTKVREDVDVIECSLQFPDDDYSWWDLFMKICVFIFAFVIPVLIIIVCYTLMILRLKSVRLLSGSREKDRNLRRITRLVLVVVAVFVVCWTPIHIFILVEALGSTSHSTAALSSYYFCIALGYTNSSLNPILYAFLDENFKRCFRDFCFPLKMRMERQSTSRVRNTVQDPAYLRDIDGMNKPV

T20 sequence (P30556 whole entry): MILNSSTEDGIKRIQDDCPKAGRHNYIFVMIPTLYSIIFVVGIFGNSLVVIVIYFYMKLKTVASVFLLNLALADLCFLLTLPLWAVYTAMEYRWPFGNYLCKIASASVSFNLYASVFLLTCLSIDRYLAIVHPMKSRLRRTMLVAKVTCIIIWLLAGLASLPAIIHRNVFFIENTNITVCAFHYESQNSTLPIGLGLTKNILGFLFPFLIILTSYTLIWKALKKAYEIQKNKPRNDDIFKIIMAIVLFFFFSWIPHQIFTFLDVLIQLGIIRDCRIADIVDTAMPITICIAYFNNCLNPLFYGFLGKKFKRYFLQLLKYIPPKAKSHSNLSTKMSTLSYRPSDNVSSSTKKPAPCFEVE
T38 sequence (P32245 whole entry): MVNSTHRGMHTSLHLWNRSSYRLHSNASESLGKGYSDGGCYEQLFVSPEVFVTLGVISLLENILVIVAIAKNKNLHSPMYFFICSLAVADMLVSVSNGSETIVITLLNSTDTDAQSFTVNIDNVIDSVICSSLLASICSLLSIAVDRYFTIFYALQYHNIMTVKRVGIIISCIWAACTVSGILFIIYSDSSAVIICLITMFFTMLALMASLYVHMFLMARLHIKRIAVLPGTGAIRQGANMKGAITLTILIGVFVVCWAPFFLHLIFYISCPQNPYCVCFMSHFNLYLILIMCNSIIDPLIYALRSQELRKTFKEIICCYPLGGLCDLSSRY
T15 sequence (P08173 whole entry): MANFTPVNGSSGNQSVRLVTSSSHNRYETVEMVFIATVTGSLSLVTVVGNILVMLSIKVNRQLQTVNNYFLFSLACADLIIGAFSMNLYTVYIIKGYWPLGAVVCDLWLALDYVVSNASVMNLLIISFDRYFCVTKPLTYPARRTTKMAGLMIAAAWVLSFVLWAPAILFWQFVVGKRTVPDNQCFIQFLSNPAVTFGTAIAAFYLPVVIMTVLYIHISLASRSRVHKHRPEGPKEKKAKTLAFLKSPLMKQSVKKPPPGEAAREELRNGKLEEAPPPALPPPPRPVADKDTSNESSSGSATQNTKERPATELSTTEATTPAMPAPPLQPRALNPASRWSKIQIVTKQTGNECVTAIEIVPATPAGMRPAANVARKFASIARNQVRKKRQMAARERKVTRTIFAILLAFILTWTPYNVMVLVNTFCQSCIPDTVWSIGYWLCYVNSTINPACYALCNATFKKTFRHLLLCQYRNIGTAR
T12 sequence (P41595 whole entry): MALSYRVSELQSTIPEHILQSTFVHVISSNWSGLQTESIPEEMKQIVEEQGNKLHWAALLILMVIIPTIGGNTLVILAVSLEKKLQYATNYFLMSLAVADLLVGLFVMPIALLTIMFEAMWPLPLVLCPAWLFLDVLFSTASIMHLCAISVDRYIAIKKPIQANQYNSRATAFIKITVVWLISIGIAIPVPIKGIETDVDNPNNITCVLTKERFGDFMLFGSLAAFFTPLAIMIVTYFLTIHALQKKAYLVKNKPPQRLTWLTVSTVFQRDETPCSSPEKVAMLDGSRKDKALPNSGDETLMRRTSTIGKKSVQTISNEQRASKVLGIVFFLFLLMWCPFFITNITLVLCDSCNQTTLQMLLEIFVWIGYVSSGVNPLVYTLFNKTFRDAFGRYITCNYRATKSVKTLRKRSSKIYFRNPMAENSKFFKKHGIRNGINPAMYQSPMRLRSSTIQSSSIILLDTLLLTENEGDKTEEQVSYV
T11 sequence (P14416 1-414 isoform P14416-2): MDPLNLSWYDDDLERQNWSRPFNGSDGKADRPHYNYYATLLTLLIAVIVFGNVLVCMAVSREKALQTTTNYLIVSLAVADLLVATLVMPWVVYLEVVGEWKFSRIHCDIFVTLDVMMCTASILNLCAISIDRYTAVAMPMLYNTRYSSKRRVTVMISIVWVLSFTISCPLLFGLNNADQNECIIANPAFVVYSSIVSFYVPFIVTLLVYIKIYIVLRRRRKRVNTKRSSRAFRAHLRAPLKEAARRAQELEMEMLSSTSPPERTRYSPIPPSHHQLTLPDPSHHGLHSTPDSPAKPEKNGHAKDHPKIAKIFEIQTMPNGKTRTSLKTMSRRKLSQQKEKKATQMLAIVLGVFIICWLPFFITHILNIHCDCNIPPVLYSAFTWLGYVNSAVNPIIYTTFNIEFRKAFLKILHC
T21 sequence (P21728 whole entry): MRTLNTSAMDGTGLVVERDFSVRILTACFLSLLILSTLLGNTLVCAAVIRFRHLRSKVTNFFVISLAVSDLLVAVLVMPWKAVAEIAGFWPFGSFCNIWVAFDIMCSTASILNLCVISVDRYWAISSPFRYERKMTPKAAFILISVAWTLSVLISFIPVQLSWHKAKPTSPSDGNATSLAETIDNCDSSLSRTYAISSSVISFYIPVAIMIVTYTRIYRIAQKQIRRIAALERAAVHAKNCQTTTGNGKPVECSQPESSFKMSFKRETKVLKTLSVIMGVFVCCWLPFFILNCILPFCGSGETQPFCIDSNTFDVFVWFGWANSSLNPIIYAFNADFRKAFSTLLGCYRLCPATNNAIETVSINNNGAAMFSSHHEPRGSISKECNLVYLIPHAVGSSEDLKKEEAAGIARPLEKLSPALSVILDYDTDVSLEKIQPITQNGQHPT
T29 sequence (P35367 whole entry): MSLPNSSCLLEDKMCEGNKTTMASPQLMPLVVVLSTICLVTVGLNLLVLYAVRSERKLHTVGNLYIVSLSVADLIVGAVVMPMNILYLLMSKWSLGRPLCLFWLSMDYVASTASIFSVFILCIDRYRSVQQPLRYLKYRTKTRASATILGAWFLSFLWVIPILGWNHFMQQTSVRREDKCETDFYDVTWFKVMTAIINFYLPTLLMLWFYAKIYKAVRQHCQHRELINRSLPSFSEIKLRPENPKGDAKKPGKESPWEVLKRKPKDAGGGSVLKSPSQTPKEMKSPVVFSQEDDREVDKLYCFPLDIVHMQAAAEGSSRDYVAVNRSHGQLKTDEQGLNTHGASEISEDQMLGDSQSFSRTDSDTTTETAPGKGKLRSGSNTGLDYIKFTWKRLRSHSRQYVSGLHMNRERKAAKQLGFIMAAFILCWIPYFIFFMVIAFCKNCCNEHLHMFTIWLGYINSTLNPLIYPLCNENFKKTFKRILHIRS
T27 sequence (P25025 whole entry): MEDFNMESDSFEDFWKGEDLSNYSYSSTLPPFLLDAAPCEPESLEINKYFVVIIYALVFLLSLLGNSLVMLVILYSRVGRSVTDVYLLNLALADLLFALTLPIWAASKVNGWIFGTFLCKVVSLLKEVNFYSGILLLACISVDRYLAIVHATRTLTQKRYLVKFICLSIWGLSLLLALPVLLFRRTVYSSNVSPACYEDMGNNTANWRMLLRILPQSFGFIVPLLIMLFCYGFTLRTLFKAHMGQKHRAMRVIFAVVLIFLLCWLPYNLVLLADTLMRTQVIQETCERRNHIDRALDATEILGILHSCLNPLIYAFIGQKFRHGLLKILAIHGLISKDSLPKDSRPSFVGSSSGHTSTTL
T35 sequence (P43140 whole entry): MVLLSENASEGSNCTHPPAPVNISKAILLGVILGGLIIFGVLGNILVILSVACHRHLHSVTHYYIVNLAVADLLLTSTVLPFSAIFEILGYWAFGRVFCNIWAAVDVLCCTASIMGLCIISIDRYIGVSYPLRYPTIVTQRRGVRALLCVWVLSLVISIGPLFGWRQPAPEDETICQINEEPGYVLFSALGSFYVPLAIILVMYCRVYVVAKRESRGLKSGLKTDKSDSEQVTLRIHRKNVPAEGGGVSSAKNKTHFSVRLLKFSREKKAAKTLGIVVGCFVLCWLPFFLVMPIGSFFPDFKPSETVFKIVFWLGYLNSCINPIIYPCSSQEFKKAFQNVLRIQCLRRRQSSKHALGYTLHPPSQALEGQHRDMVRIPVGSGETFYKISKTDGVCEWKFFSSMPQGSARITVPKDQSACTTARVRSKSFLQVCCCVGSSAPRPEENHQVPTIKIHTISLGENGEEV
T31 sequence (P08913 whole entry): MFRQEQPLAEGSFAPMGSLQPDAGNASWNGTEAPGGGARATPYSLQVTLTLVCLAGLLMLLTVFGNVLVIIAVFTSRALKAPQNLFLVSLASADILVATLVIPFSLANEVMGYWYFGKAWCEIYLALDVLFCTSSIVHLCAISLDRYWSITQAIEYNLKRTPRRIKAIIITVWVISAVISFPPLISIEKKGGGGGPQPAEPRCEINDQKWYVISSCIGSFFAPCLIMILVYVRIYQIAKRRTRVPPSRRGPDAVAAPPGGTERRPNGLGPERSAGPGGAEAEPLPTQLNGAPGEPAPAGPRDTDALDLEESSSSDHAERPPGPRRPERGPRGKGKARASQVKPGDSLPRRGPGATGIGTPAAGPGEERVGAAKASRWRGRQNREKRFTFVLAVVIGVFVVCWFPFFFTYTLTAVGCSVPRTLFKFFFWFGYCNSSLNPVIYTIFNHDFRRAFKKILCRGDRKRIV

SMILES: CC(=O)N1CC2(CCN(C(=O)[C@@H](CCCCN)NC(=O)[C@@H](CC(C)C)NC(=O)[C@@H](Cc3ccccc3)NC(=O)[C@H](N)Cc3ccccc3)CC2)C1 [HSK21542, 7-(D-phenylalanyl-D-phenylalanyl-D-leucyl-D-lysyl)-2-acetyl-2,7-diazaspiro (3.5)nonane]
- inhibition at 10 µM [1]: 5%
- inhibition at 10 µM (GABAB1A): -8%
- inhibition at 10 µM [2]: 0%
- inhibition at 10 µM (Vasopressin V1A): -24%
- inhibition at 10 µM (Dopamine D2L): -6%
- inhibition at 10 µM (Histamine H2): 8%
- inhibition at 10 µM (Adrenergic α1D): -1%
- inhibition at 10 µM (Estrogen ERα): 0%
- inhibition at 10 µM (Endothelin ETA): 4%
- inhibition at 10 µM (Adenosine A2A): 3%
- inhibition at 10 µM (Dopamine D2S): -15%
- inhibition at 10 µM [3]: 0%
- inhibition at 10 µM (Cannabinoid CB1): 47%
- inhibition at 10 µM [4]: 8%
- inhibition at 10 µM (Muscarinic M4): 3%
- inhibition at 10 µM (Tachykinin NK1): 21%
- inhibition at 10 µM [5]: 2%
- inhibition at 10 µM (Bradykinin B2): -3%
- inhibition at 10 µM (Opiate μ (OP3, MOP)): 0%
- inhibition at 10 µM (Angiotensin AT1): -7%
- inhibition at 10 µM (Dopamine D1): 3%
- inhibition at 10 µM [6]: 5%
- inhibition at 10 µM (Cannabinoid CB2): -30%
- inhibition at 10 µM (Opiate δ1 (OP1, DOP)): 5%
- inhibition at 10 µM [7]: -12%
- inhibition at 10 µM (Calcium Channel N-Type): -3%
- inhibition at 10 µM (Chemokine CXCR2 (IL-8RB)): 4%
- inhibition at 10 µM (Muscarinic M1): 9%
- inhibition at 10 µM (Histamine H1): 4%
- inhibition at 10 µM (Chemokine CCR1): -4%
- inhibition at 10 µM (Adrenergic α2A): 7%
- inhibition at 10 µM (Progesterone PR-B): -1%
- inhibition at 10 µM [8]: 19%
- inhibition at 10 µM [9]: 0%
- inhibition at 10 µM (Adrenergic α1A): 12%
- inhibition at 10 µM (Neuropeptide YY1): -8%
- inhibition at 10 µM (Adrenergic β1): 11%
- inhibition at 10 µM (Melanocortin MC4): 27%
- inhibition at 10 µM [10]: 19%
- IC50 (human κ opioid receptor; HEK-293 membranes expressing human KOR, 0.6 nM [3H]diprenorphine, 25°C, 60 min, read-out: IC50 for inhibition of [3H]diprenorphine binding to KOR): 0.54 nM
- Kd (human κ opioid receptor; competitive binding kinetic model, [3H]diprenorphine, read-out: Kd for binding to KOR (binding kinetics)): 0.068 nM

Source: article PMC8635029 (Frontiers in Pharmacology, 2021)
